In ChEMBL document CHEMBL1128524, “The histamine H1-receptor antagonist binding site. A stereoselective pharmacophoric model based upon (semi-)rigid H1-antagonists and including a known interaction site on the receptor” (J Med Chem, 1995):

Assays:
Histamine H1 receptor [1] = target: T1, Histamine H1 receptor (Cavia porcellus, UniProt P31389); test: Inhibition of [3H]mepyramine binding with histamine H1 receptor in guinea pig cerebellum membranes after 30 min; format: cell membranes, Membrane
Histamine H1 receptor [2] = target: T1, Histamine H1 receptor; test: (§1) Potency against histamine H1 receptor on guinea pig ileum; format: tissue-based; conditions: read-out: pA2 (converted)
[3] = target: Histamine H1 receptor (Cavia porcellus) (UniProt P31389); test: as §1; format: tissue-based
Sequence of Histamine H1 receptor (Cavia porcellus) (P31389 whole entry): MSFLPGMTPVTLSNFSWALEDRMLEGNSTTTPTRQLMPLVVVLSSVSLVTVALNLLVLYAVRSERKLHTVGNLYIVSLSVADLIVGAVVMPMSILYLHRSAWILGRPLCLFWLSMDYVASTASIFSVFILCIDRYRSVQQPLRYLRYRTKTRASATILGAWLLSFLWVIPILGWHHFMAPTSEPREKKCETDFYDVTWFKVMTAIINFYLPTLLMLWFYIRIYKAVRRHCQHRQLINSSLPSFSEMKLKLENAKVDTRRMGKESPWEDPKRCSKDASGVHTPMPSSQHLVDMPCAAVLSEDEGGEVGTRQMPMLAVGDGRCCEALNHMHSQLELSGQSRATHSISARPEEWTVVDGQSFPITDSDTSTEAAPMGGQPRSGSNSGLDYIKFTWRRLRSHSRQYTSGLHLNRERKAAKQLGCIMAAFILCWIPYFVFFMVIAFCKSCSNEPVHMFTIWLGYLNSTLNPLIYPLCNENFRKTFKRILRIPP

Histamine H1 receptor [4] = target: T1, Histamine H1 receptor; test: as §1
Histamine H1 receptor [5] = target: T1, Histamine H1 receptor; test: Inhibition of [3H]mepyramine binding with histamine H1 receptor in guinea pig cerebellum membranes; format: cell membranes, Membrane

T1 sequence (P31389 whole entry): as above

Cc1ccc([C@H](OCCN(C)C)c2ccccc2)cc1
Ki (Histamine H1 receptor [1]): 12.3 nM
Kb (Histamine H1 receptor [2]): 2 nM

Cc1ccc(/C(=C\CN2CCCC2)c2ccccn2)cc1 [TRIPROLIDINE]
Ki (Histamine H1 receptor [1]): 1.66 nM
Kb (Histamine H1 receptor [2]): 0.126 nM

c1ccc2c(c1)Sc1ccccc1N2CC1CN2CCC1CC2 (configuration not stated)
pED50 [3]: 7.2

c1ccc2c(c1)Sc1ccccc1N2C1CN2CCC1CC2 (configuration not stated)
pED50 [3]: 7.3

NC1=NCC2c3ccccc3Cc3ccccc3N12 (configuration not stated) [EPINASTINE]
IC50 (Histamine H1 receptor [4]): 1.58 nM
Ki (Histamine H1 receptor [1]): 1.41 nM

CN1CCC2=C(C1)C(c1ccccc1)c1ccccc12 (configuration not stated) [PHENINDAMINE]
Ki (Histamine H1 receptor [1]): 6.31 nM
Kb (Histamine H1 receptor [2]): 1.58 nM

Cc1ccc([C@@H](OCCN(C)C)c2ccccc2)cc1
Ki (Histamine H1 receptor [5]): 12.3 nM
Kb (Histamine H1 receptor [2]): 158 nM
